The source of these data is US20160159774A1 (Celgene Avilomics Research, Inc., priority 2014, published 2016).

In one assay the target is T1, activated BTK enzyme (Homo sapiens, UniProt Q06187).
T1 construct: purchased Life Technologies PV3363
Kind of assay: Omnia assay for potency assessment against BTK. Conditions: BTK inhibition assay; [BTK]=5 nM, [ATP]=40 μM, [Y5-Sox]=10 μM. Type of assay: biochemical. From the text: Omnia Assay Protocol for Potency Assessment Against BTK
The protocol below describes an assay to measure potency of compounds against the activated BTK enzyme. The mechanics of the assay platform are best described by the vendor (Life Technologies, Carlsbad, Calif.) on their website at the following URLs: www.lifetechnologies.com/us/en/home/life-science/drug-discovery/target-and-lead-identification-and-validation/kinasebiology/kinase-activity-assays/omnia-kinase-assays/omnia-kinase-principle.html and tools.lifetechnologies.com/content/sfs/manuals/omnia_kinase_assay_man.pdf
Briefly, 10× stocks of BTK (PV3363) from Life Technologies, 1.13×ATP (AS00lA) and Sox conjugated peptide substrates, Y5-Sox, (KZN305l) were prepared in 1× kinase reaction buffer consisting of 20 mM Tris, pH 7.5, 5 mM MgCl2, 1 mM EGTA, 5 mM (3-glycerophosphate, 5% glycerol (10× stock, KB002A) and 0.2 mM DTT (DS00lA). 5 μL of each enzyme were pre-incubated in a Corning (#3574) 384-well, white, non-binding surface microtiter plate (Corning, N.Y.) for 30 min. at room temperature with a 0.5 μL volume of 50% DMSO or serially diluted compounds prepared in 50% DMSO. Kinase reactions were started with the addition of […] of the ATP/Tyr-Sox peptide substrate Y5 mix and monitored every 71 seconds for 60 minutes at λex360/λem485 in a Synergy4 plate reader from BioTek (Winooski, Vt.). At the conclusion of each assay, progress curves from each well were examined for linear reaction kinetics and fit statistics (R2, 95% confidence interval, absolute sum of squares). Initial velocity (0 minutes to ˜30 minutes) from each reaction was determined from the slope of a plot of relative fluorescence units vs time (minutes) and then plotted against inhibitor concentration to estimate IC50 from log [Inhibitor] vs Response, Variable Slope model in GraphPad Prism from GraphPad Software (San Diego, Calif.).
Reagent conditions for the assay are:
[BTK]=5 nM, [ATP]=40 μM, [Y5-Sox]=10 μM (ATP KMapp˜36 μM).
The compound numbers correspond to the compound numbers in the examples.

Assay [1] has as its target T2, BTK in Ramos human Burkitt lymphoma cells (Homo sapiens, UniProt Q06187).
T2 construct: Compounds of this invention were assayed in Ramos human Burkitt lymphoma cells; endogenous in cells; host or cells: Ramos human Burkitt lymphoma cells
As to the kind of experiment: BTK Ramos cellular assay (BTK occupancy). The format is cell-based. Conditions: concentration producing 50% occupancy of BTK, 1 hour incubation with compound. As to the method: BTK activity in Ramos cells, in the presence of a compound of the invention, can be measured by 3 different methods: 1) inhibition of autophosphorylation of BTK; 2) inhibition of phosphorylation of the immediate BTK surrogate PLCγ2; and 3) BTK occupancy. […] In this instance, BTK occupancy was chosen and is described below.
Compounds of this invention were assayed in Ramos human Burkitt lymphoma cells. Ramos cells were grown in suspension in T175 flasks, spun down, resuspended to a concentration of 2×10^6 cells per mL in serum-free media and incubated for 1 hour. Compound was added to Ramos cells to a final concentration of 500, 166.7, 55.6, 18.5, 6.2, 2.1, and 0.7 nM. Ramos cells were incubated with compound for 1 hour, washed with PBS and lysed in 1004 of BioRad lysis Buffer. Cell lysates were incubated with a biotinylated covalent probe (compound 1-215 disclosed in U.S. published application number 2010/0029610, incorporated by reference in its entirety) at a final concentration of 1 μM in a PBS, 0.05% Tween-20, 1% BSA solution for 1 h at room temperature. Standards and samples were transferred to a streptavidin-coated 96-well ELISA plate and mixed while shaking for 1 h at room temperature. The α-Btk antibody (BD 611116, 1:1000 dilution in PBS+0.05% Tween-20+0.5% BSA) was then added and incubated for 1 h at room temperature. After wash, goat α-mouse-HRP (1:5000 dilution in PBS+0.05% Tween-20+0.5% BSA) was added and incubated for 1 h at room temperature. The ELISA was developed with addition of tetramethyl benzidine (TMB) followed by Stop Solution and read at OD 450 nm. The standard curve (11.7-3000 pg/μL) was generated with human full-length recombinant Btk protein and plotted using a 4 parameter curve fit in Gen5 software. Uninhibited Btk detected from samples was normalized to μg total protein as determined by BCA protein analysis (Pierce Cat. 23225).
The results of this assay show the concentration of compound producing 50% occupancy of BTK. This level of occupancy empirically translates to a level of 50% inhibition of BTK activity (both as measured by autophosphorylation and by phosphorylation of PLCγ2). […] The compound numbers correspond to the compound numbers in the examples.

T1 sequence (Q06187 whole entry): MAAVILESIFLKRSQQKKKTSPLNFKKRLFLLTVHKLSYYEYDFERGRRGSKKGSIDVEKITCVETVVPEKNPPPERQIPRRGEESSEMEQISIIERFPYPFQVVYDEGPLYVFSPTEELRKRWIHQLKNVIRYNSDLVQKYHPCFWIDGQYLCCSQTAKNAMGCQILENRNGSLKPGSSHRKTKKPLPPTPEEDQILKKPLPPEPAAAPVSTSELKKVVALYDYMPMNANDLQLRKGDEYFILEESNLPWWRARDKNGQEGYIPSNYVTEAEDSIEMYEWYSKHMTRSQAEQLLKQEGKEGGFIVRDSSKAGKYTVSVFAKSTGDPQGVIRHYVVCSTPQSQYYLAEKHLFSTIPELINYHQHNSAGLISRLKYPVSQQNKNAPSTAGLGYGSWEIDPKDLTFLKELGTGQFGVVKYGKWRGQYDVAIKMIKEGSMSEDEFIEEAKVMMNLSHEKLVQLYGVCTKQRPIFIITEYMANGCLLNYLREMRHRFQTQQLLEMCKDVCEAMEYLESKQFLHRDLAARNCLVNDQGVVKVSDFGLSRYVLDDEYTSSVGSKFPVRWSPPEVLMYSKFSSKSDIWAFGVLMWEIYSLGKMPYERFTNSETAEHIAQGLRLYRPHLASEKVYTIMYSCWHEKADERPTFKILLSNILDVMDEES
T2 sequence (Q06187 whole entry): as above

In the case of `C=CC(=O)N1CCC[C@@H](Nc2nc(Nc3ccc4c(c3)CN(CC3COC3)C4)ncc2F)C1` [Compound I-15, (R)-1-(3-((5-Fluoro-2-((2-(oxetan-3-ylmethyl)isoindolin-5-yl)amino)pyrimidin-4-yl)amino)piperidin-1-yl)prop-2-en-1-one], on activated BTK enzyme, the IC50 was under 10 nM. Also, the EC50 in assay [1] lay in the range of 10 to 100 nM.
For `C=CC(=O)N1CCC[C@@H](Nc2nc(Nc3ccc4c(c3)CCNC4)ncc2F)C1` [Compound I-27, (R)-1-(3-((5-fluoro-2-((1,2,3,4-tetrahydroisoquinolin-6-yl)amino)pyrimidin-4-yl)amino)piperidin-1-yl)prop-2-en-1-one] the same measures were under 10 nM and 10 to 100 nM.
As for `C=CC(=O)N1CCC[C@@H](Nc2nc(Nc3ccc4c(c3)CN(CCO)C4)ncc2F)C1` [Compound I-23, (R)-1-(3-((5-fluoro-2-((2-(2-hydroxyethyl)isoindolin-5-yl)amino)pyrimidin-4-yl)amino)piperidin-1-yl)prop-2-en-1-one], the IC50 on activated BTK enzyme is under 10 nM. In addition, the 50% effective concentration (EC50) in assay [1] is under 10 nM.
In the case of `C=CC(=O)N1CCC[C@@H](Nc2nc(Nc3ccc4c(c3)CN(C3CCNCC3)C4)ncc2F)C1` [Compound I-5, (R)-1-(3-((5-fluoro-2-((2-(piperidin-4-yl)isoindolin-5-yl)amino)pyrimidin-4-yl)amino)piperidin-1-yl)prop-2-en-1-one], the IC50 at activated BTK enzyme is under 10 nM. Moreover, the concentration giving a half-maximal response (EC50) in assay [1] is 101 to 1000 nM.
`C=CC(=O)N1CCC[C@@H](Nc2nc(Nc3ccc4c(c3)CCN(CC3COC3)C4)ncc2F)C1` [Compound I-32, (R)-1-(3-(5-Fluoro-2-(2-(oxetan-3-ylmethyl)-1,2,3,4-tetrahydroisoquinolin-6-ylamino)pyrimidin-4-ylamino)piperidin-1-yl)prop-2-en-1-one]: the IC50 on activated BTK enzyme is under 10 nM. The EC50 in assay [1] is under 10 nM.
For the molecule `C=CC(=O)N1CCC[C@@H](Nc2nc(Nc3ccc4c(c3)CN(CC(C)(C)C)C4)ncc2F)C1` [Compound I-14, (R)-1-(3-((5-Fluoro-2-((2-neopentylisoindolin-5-yl)amino)pyrimidin-4-yl)amino)piperidin-1-yl)prop-2-en-1-one], the IC50 on activated BTK enzyme was under 10 nM. For the same molecule, the EC50 in assay [1] lay in the range of 10 to 100 nM.
On to `C#CCN1Cc2ccc(Nc3ncc(F)c(N[C@@H]4CCCN(C(=O)C=C)C4)n3)cc2C1` [Compound I-67, (R)-1-(3-((5-Fluoro-2-((2-(prop-2-yn-1-yl)isoindolin-5-yl)amino)pyrimidin-4-yl)amino)piperidin-1-yl)prop-2-en-1-one], for which the IC50 at activated BTK enzyme is under 10 nM. For the same molecule, the EC50 in assay [1] was 10 to 100 nM.
On to `C=CC(=O)N1CCC[C@@H](Nc2nc(Nc3ccc4c(c3)CCN(C3CCC3)C4)ncc2F)C1` [Compound I-42, (R)-1-(3-((2-((2-cyclobutyl-1,2,3,4-tetrahydroisoquinolin-6-yl)amino)-5-fluoropyrimidin-4-yl)amino)piperidin-1-yl)prop-2-en-1-one], for which the IC50 on activated BTK enzyme was under 10 nM. Also, the EC50 in assay [1] was under 10 nM.
Turning to `C=CC(=O)N1CCC[C@@H](Nc2nc(Nc3ccc4c(c3)CN(CC3CC3)C4)ncc2F)C1` [Compound I-19, (R)-1-(3-((2-((2-(cyclopropylmethyl)isoindolin-5-yl)amino)-5-fluoropyrimidin-4-yl)amino)piperidin-1-yl)prop-2-en-1-one], the IC50 at activated BTK enzyme is under 10 nM. For the same molecule, the EC50 in assay [1] was under 10 nM.
`C=CC(=O)N1CCC[C@@H](Nc2nc(Nc3ccc4c(c3)CNC4)ncc2C(F)(F)F)C1` [Compound I-65, (R)-1-(3-((2-(Isoindolin-5-ylamino)-5-(trifluoromethyl)pyrimidin-4-yl)amino)piperidin-1-yl)prop-2-en-1-one]: the IC50 on activated BTK enzyme was under 10 nM. Besides, the EC50 in assay [1] was under 10 nM.
Turning to `C=CC(=O)N1CCC[C@@H](Nc2nc(Nc3ccc4c(c3)CCCN(CC3COC3)C4)ncc2F)C1` [Compound I-50, (R)-1-(3-((5-Fluoro-2-((2-(oxetan-3-ylmethyl)-2,3,4,5-tetrahydro-1H-benzo[c]azepin-7-yl)amino)pyrimidin-4-yl)amino)piperidin-1-yl)prop-2-en-1-one], at activated BTK enzyme, the IC50 is under 10 nM. Further, in assay [1], the EC50 was in the range of 10 to 100 nM.
For `C=CC(=O)N1CC2(CC(Nc3nc(Nc4ccc5c(c4)CN(C)C5)ncc3F)C2)C1` [Compound I-26, 1-(6-((5-Fluoro-2-((2-methylisoindolin-5-yl)amino)pyrimidin-4-yl)amino)-2-azaspiro[3.3]heptan-2-yl)prop-2-en-1-one] the same measures were under 10 nM and under 10 nM.
For `C=CC(=O)N1CCC[C@@H](Nc2nc(Nc3ccc4c(c3)CN(C3CCN(C(C)=O)CC3)C4)ncc2F)C1` [Compound I-9, (R)-1-(3-(2-(2-(1-Acetylpiperidin-4-yl)isoindolin-5-ylamino)-5-fluoropyrimidin-4-ylamino)piperidin-1-yl)prop-2-en-1-one], in that order: under 10 nM and 10 to 100 nM.
For `C=CC(=O)N1CCC[C@@H](Nc2nc(Nc3ccc4c(c3)CN(C)CC4)ncc2F)C1` [Compound I-34, (R)-1-(3-((5-Fluoro-2-((2-methyl-1,2,3,4-tetrahydroisoquinolin-7-yl)amino)-pyrimidin-4-yl)amino)piperidin-1-yl)prop-2-en-1-one], in that order: under 10 nM and under 10 nM.
On to `[2H]C([2H])([2H])N1Cc2ccc(Nc3ncc(F)c(N[C@@H]4CCCN(C(=O)C=C)C4)n3)cc2C1` [Compound I-20, (R)-1-(3-((5-Fluoro-2-((2-deuteromethylisoindolin-5-yl)amino)pyrimidin-4-yl)amino)piperidin-1-yl)prop-2-en-1-one], for which the half-inhibitory concentration (IC50) at activated BTK enzyme is under 10 nM. Also, the EC50 in assay [1] was under 10 nM.
On to `C=CC(=O)N1CCC[C@@H](Nc2nc(Nc3ccc4c(c3)C(=O)N(C)C4=O)ncc2F)C1` [Compound I-63, (R)-5-((4-((1-Acryloylpiperidin-3-yl)amino)-5-fluoropyrimidin-2-yl)amino)-2-methylisoindoline-1,3-dione], for which the IC50 on activated BTK enzyme is under 10 nM. Also, the half-maximal effective concentration (EC50) in assay [1] was 10 to 100 nM.
As to `C=CC(=O)N1CCC[C@@H](Nc2nc(Nc3ccc4c(c3)CCN(C(C)C)C4)ncc2F)C1` [Compound I-29, (R)-1-(3-((5-Fluoro-2-((2-isopropyl-1,2,3,4-tetrahydroisoquinolin-6-yl)amino)-pyrimidin-4-yl)amino)piperidin-1-yl)prop-2-en-1-one], at activated BTK enzyme, the IC50 is under 10 nM. Besides, in assay [1], the EC50 fell in the range of 10 to 100 nM.
Turning to `C=CC(=O)N1CC2CC(Nc3nc(Nc4ccc5c(c4)CN(C)C5)ncc3F)C1C2` (centres unmarked) [Compound I-66, 1-(6-((5-fluoro-2-((2-methylisoindolin-5-yl)amino)pyrimidin-4-yl)amino)-2-azabicyclo[2.2.1]heptan-2-yl)prop-2-en-1-one], the IC50 at activated BTK enzyme was in the range of 101 to 1000 nM.
